Assay results from ChEMBL document CHEMBL3885881, “DrugMatrix”.

Species: Rattus norvegicus
Test: DrugMatrix - Regimen: Daily Repeat
Format: toxicity, organism-based, Sprague-Dawley
Set-up: regimen Daily Repeat, gender Male, age 6-8 weeks
Conditions: in vivo, po, 200 mg/kg, route oral GAVAGE, dose level Low, vehicle .5 % CMC; for ABSOLUTE BASOPHIL / ABSOLUTE EOSINOPHIL / ABSOLUTE LYMPHOCYTE / ABSOLUTE MONOCYTE / ABSOLUTE SEGMENTED NEUTROPHIL / BASOPHIL / EOSINOPHIL / ERYTHROCYTE COUNT / HEMATOCRIT / HEMOGLOBIN / LEUKOCYTE COUNT / LYMPHOCYTE / MEAN CORPUSCULAR HEMOGLOBIN / MEAN CORPUSCULAR HEMOGLOBIN CONCENTRATION / MEAN CORPUSCULAR VOLUME / MONOCYTE / NEUTROPHIL / NUCLEATED RED BLOOD CELLS / PLATELET COUNT: tissue Blood; for ALANINE AMINOTRANSFERASE / ALBUMIN / ALKALINE PHOSPHATASE / ASPARTATE AMINOTRANSFERASE / BLOOD UREA NITROGEN / CARBON DIOXIDE / CHLORIDE / CHOLESTEROL / CREATINE PHOSPHOKINASE / CREATININE / GLUCOSE / LACTATE DEHYDROGENASE / LIPASE / PHOSPHORUS / POTASSIUM / SODIUM / TOTAL BILIRUBIN / TOTAL PROTEIN / URIC ACID: tissue Plasma

SMILES: NC(=O)c1ccccc1O [SALICYLAMIDE]
- ABSOLUTE BASOPHIL (72 h, time 3 day): 0 CELLS/uL
- ABSOLUTE EOSINOPHIL (72 h, time 3 day): 126.67 CELLS/uL
- ABSOLUTE LYMPHOCYTE (72 h, time 3 day): 13749 CELLS/uL
- ABSOLUTE MONOCYTE (72 h, time 3 day): 274.67 CELLS/uL
- ABSOLUTE SEGMENTED NEUTROPHIL (72 h, time 3 day): 2049.67 CELLS/uL
- BASOPHIL (72 h, time 3 day): 0%
- EOSINOPHIL (72 h, time 3 day): 0.67%
- ERYTHROCYTE COUNT (72 h, time 3 day): 5.79 x10E6/uL
- HEMATOCRIT (72 h, time 3 day): 37.07%
- HEMOGLOBIN (72 h, time 3 day): 13.9 G/DL
- LEUKOCYTE COUNT (72 h, time 3 day): 16.2 x10E3/uL
- LYMPHOCYTE (72 h, time 3 day): 85%
- MEAN CORPUSCULAR HEMOGLOBIN (72 h, time 3 day): 24.03 pg
- MEAN CORPUSCULAR HEMOGLOBIN CONCENTRATION (72 h, time 3 day): 37.5 G/DL
- MEAN CORPUSCULAR VOLUME (72 h, time 3 day): 64.07 fL
- MONOCYTE (72 h, time 3 day): 1.67%
- NEUTROPHIL (72 h, time 3 day): 12.67%
- NUCLEATED RED BLOOD CELLS (72 h, time 3 day): 0 /100WBC
- PLATELET COUNT (72 h, time 3 day): 1342.33 x10E3/uL
- ALANINE AMINOTRANSFERASE (72 h, time 3 day): 47 u/L
- ALBUMIN (72 h, time 3 day): 4.23 G/DL
- ALKALINE PHOSPHATASE (72 h, time 3 day): 337 u/L
- ASPARTATE AMINOTRANSFERASE (72 h, time 3 day): 92 u/L
- BLOOD UREA NITROGEN (72 h, time 3 day): 14.67 mg/dL
- CARBON DIOXIDE (72 h, time 3 day): 28.67 mmol/L
- CHLORIDE (72 h, time 3 day): 102.33 MEQ/L
- CHOLESTEROL (72 h, time 3 day): 91.33 mg/dL
- CREATINE PHOSPHOKINASE (72 h, time 3 day): 270 u/L
- CREATININE (72 h, time 3 day): 0.24 mg/dL
- GLUCOSE (72 h, time 3 day): 149.67 mg/dL
- LACTATE DEHYDROGENASE (72 h, time 3 day): 413.33 u/L
- LIPASE (72 h, time 3 day): 9.67 u/L
- PHOSPHORUS (72 h, time 3 day): 12.53 mg/dL
- POTASSIUM (72 h, time 3 day): 7.01 MEQ/L
- SODIUM (72 h, time 3 day): 146.23 MEQ/L
- TOTAL BILIRUBIN (72 h, time 3 day): 0.2 mg/dL
- TOTAL PROTEIN (72 h, time 3 day): 5.93 G/DL
- URIC ACID (72 h, time 3 day): 1.77 mg/dL
- ABSOLUTE BASOPHIL (120 h, time 5 day): 0 CELLS/uL
- ABSOLUTE EOSINOPHIL (120 h, time 5 day): 0 CELLS/uL
- ABSOLUTE LYMPHOCYTE (120 h, time 5 day): 13314 CELLS/uL
- ABSOLUTE MONOCYTE (120 h, time 5 day): 96.33 CELLS/uL
- ABSOLUTE SEGMENTED NEUTROPHIL (120 h, time 5 day): 1389.67 CELLS/uL
- BASOPHIL (120 h, time 5 day): 0%
- EOSINOPHIL (120 h, time 5 day): 0%
- ERYTHROCYTE COUNT (120 h, time 5 day): 5.67 x10E6/uL
- HEMATOCRIT (120 h, time 5 day): 34.73%
- HEMOGLOBIN (120 h, time 5 day): 13.53 G/DL
- LEUKOCYTE COUNT (120 h, time 5 day): 14.8 x10E3/uL
- LYMPHOCYTE (120 h, time 5 day): 90%
- MEAN CORPUSCULAR HEMOGLOBIN (120 h, time 5 day): 24 pg
- MEAN CORPUSCULAR HEMOGLOBIN CONCENTRATION (120 h, time 5 day): 39 G/DL
- MEAN CORPUSCULAR VOLUME (120 h, time 5 day): 61.53 fL
- MONOCYTE (120 h, time 5 day): 0.67%
- NEUTROPHIL (120 h, time 5 day): 9.33%
- NUCLEATED RED BLOOD CELLS (120 h, time 5 day): 0 /100WBC
- PLATELET COUNT (120 h, time 5 day): 1300.67 x10E3/uL
- ALANINE AMINOTRANSFERASE (120 h, time 5 day): 41.67 u/L
- ALBUMIN (120 h, time 5 day): 4.13 G/DL
- ALKALINE PHOSPHATASE (120 h, time 5 day): 340 u/L
- ASPARTATE AMINOTRANSFERASE (120 h, time 5 day): 77.67 u/L
- BLOOD UREA NITROGEN (120 h, time 5 day): 15.33 mg/dL
- CARBON DIOXIDE (120 h, time 5 day): 27 mmol/L
- CHLORIDE (120 h, time 5 day): 104 MEQ/L
- CHOLESTEROL (120 h, time 5 day): 78.33 mg/dL
- CREATINE PHOSPHOKINASE (120 h, time 5 day): 235.33 u/L
- CREATININE (120 h, time 5 day): 0.22 mg/dL
- GLUCOSE (120 h, time 5 day): 151 mg/dL
- LACTATE DEHYDROGENASE (120 h, time 5 day): 176 u/L
- LIPASE (120 h, time 5 day): 9.33 u/L
- PHOSPHORUS (120 h, time 5 day): 12.43 mg/dL
- POTASSIUM (120 h, time 5 day): 6.83 MEQ/L
- SODIUM (120 h, time 5 day): 145.3 MEQ/L
- TOTAL BILIRUBIN (120 h, time 5 day): 0.13 mg/dL
- TOTAL PROTEIN (120 h, time 5 day): 5.83 G/DL
- URIC ACID (120 h, time 5 day): 1.57 mg/dL
